target: T1, chimeric human H3 receptor (Homo sapiens, UniProt Q9Y5N1, E19D); assay: Chimeric human H3 receptor GTP binding assay (agonist-stimulated GTP-gamma35S binding, Example 7); type: biochemical; conditions: Table II, "*" in Ki; assay of Example 7; read-out: Ki
T1 construct: made in house; host or cells: Sf9 insect cells (baculovirus infection); P2 membrane preparation
Outline: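 Sf9 membranes co-expressing the chimeric receptor and heterotrimeric G-protein subunits, 35 μg protein per tube, in pH 7.4 Tris buffer with 10 μM GDP. Test compounds at 10^−10 to 10^−6 M with 1 μM histamine, 60 min at room temperature. Filter-bound GTP-gamma^35S read by scintillation; IC50 from non-linear regression of dose-response curves.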

T1 sequence (Q9Y5N1 with tags, fused parts or gaps E19D): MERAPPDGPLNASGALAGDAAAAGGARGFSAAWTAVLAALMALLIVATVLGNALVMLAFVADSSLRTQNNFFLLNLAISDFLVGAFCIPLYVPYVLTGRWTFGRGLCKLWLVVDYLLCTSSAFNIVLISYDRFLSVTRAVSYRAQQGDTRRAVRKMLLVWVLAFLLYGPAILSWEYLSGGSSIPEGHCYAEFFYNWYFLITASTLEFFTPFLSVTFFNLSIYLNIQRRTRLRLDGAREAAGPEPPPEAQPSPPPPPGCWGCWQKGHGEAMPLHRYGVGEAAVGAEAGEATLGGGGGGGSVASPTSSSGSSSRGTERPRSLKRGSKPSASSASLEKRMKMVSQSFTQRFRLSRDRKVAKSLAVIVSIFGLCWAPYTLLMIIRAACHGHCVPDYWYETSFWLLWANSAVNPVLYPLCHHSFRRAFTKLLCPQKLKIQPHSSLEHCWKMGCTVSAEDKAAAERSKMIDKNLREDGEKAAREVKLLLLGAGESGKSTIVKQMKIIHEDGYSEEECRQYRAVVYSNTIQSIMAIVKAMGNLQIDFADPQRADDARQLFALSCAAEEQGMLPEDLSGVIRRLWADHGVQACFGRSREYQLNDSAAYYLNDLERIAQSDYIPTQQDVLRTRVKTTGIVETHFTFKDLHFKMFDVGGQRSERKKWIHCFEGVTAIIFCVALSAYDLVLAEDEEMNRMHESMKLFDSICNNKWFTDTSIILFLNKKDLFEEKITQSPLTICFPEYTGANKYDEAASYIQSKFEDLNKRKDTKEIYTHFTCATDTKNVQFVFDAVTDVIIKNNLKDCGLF

SMILES	Ki
O=C(CN1CCN(c2ccc(-c3ccc(Cl)cc3Cl)cc2)CC1)N1CCN(C2CCC2)CC1 [Compound 675, 1-cyclobutyl-4-{[4-(2′,4′-dichlorobiphenyl-4-yl)piperazin-1-yl]acetyl}piperazine]	< 1000 nM
O=C(CN1CCN(c2ccc(-c3ccc(F)cc3F)cc2)CC1)N1CCN(C2CCC2)CC1 [Compound 676, 1-cyclobutyl-4-{[4-(2′,4′-difluorobiphenyl-4-yl)piperazin-1-yl]acetyl}piperazine]	< 1000 nM
COc1ccc(-c2ccc(N3CCN(CC(=O)N4CCN(C5CCC5)CC4)CC3)cc2)c(OC)c1 [Compound 678, 1-cyclobutyl-4-{[4-(2′,4′-dimethoxybiphenyl-4-yl)piperazin-1-yl]acetyl}piperazine]	< 1000 nM
O=C(CN1CCN(c2ccc(-c3cc(Cl)ccc3Cl)cc2)CC1)N1CCN(C2CCC2)CC1 [Compound 682, 1-cyclobutyl-4-{[4-(2′,5′-dichlorobiphenyl-4-yl)piperazin-1-yl]acetyl}piperazine]	< 1000 nM
COc1cc(F)c(-c2ccc(N3CCN(CC(=O)N4CCN(C5CCC5)CC4)CC3)cc2)cc1F [Compound 683, 1-cyclobutyl-4-{[4-(2′,5′-difluoro-4′-methoxybiphenyl-4-yl)piperazin-1-yl]acetyl}piperazine]	< 1000 nM
O=C(CN1CCN(c2ccc(-c3cc(F)ccc3F)cc2)CC1)N1CCN(C2CCC2)CC1 [Compound 685, 1-cyclobutyl-4-{[4-(2′,5′-difluorobiphenyl-4-yl)piperazin-1-yl]acetyl}piperazine]	< 1000 nM
COc1ccc(OC)c(-c2ccc(N3CCN(CC(=O)N4CCN(C5CCC5)CC4)CC3)cc2)c1 [Compound 687, 1-cyclobutyl-4-{[4-(2′,5′-dimethoxybiphenyl-4-yl)piperazin-1-yl]acetyl}piperazine]	< 1000 nM
COc1cccc(OC)c1-c1ccc(N2CCN(CC(=O)N3CCN(C4CCC4)CC3)CC2)cc1 [Compound 695, 1-cyclobutyl-4-{[4-(2′,6′-dimethoxybiphenyl-4-yl)piperazin-1-yl]acetyl}piperazine]	< 1000 nM
Cc1cccc(C)c1-c1ccc(N2CCN(CC(=O)N3CCN(C4CCC4)CC3)CC2)cc1 [Compound 697, 1-cyclobutyl-4-{[4-(2′,6′-dimethylbiphenyl-4-yl)piperazin-1-yl]acetyl}piperazine]	< 1000 nM
Cc1cccc(C)c1N1CCN(CC(=O)N2CCN(C3CCC3)CC2)CC1 [Compound 698, 1-cyclobutyl-4-{[4-(2,6-dimethylphenyl)piperazin-1-yl]acetyl}piperazine]	< 1000 nM
CCOc1ccccc1-c1ccc(N2CCN(CC(=O)N3CCN(C4CCC4)CC3)CC2)cc1 [Compound 700, 1-cyclobutyl-4-{[4-(2′-ethoxybiphenyl-4-yl)piperazin-1-yl]acetyl}piperazine]	< 1000 nM
Cc1ccc(-c2ccc(N3CCN(CC(=O)N4CCN(C5CCC5)CC4)CC3)cc2)c(F)c1 [Compound 704, 1-cyclobutyl-4-{[4-(2′-fluoro-4′-methylbiphenyl-4-yl)piperazin-1-yl]acetyl}piperazine]	< 1000 nM
Cc1ccc(F)c(-c2ccc(N3CCN(CC(=O)N4CCN(C5CCC5)CC4)CC3)cc2)c1 [Compound 705, 1-cyclobutyl-4-{[4-(2′-fluoro-5′-methylbiphenyl-4-yl)piperazin-1-yl]acetyl}piperazine]	< 1000 nM
O=C(CN1CCN(c2ccc(-c3ccccc3F)cc2)CC1)N1CCN(C2CCC2)CC1 [Compound 707, 1-cyclobutyl-4-{[4-(2′-fluorobiphenyl-4-yl)piperazin-1-yl]acetyl}piperazine]	< 1000 nM
O=C(CN1CCN(c2ccccc2F)CC1)N1CCN(C2CCC2)CC1 [Compound 708, 1-cyclobutyl-4-{[4-(2-fluorophenyl)piperazin-1-yl]acetyl}piperazine]	< 1000 nM
CC(C)c1ccccc1-c1ccc(N2CCN(CC(=O)N3CCN(C4CCC4)CC3)CC2)cc1 [Compound 709, 1-cyclobutyl-4-{[4-(2′-isopropylbiphenyl-4-yl)piperazin-1-yl]acetyl}piperazine]	< 1000 nM
COc1ccc(C)cc1-c1ccc(N2CCN(CC(=O)N3CCN(C4CCC4)CC3)CC2)cc1 [Compound 710, 1-cyclobutyl-4-{[4-(2′-methoxy-5′-methylbiphenyl-4-yl)piperazin-1-yl]acetyl}piperazine]	< 1000 nM
COc1ccccc1-c1ccc(N2CCN(CC(=O)N3CCN(C4CCC4)CC3)CC2)cc1 [Compound 712, 1-cyclobutyl-4-{[4-(2′-methoxybiphenyl-4-yl)piperazin-1-yl]acetyl}piperazine]	< 1000 nM
O=C(CN1CCN(c2ccc(-c3ccccc3Oc3ccccc3)cc2)CC1)N1CCN(C2CCC2)CC1 [Compound 719, 1-cyclobutyl-4-{[4-(2′-phenoxybiphenyl-4-yl)piperazin-1-yl]acetyl}piperazine]	< 1000 nM
CC(Oc1ccccc1)C(=O)N1CCN(CC(=O)N2CCN(C3CCC3)CC2)CC1 (stereo not drawn) [Compound 720, 1-cyclobutyl-4-{[4-(2-phenoxypropanoyl)piperazin-1-yl]acetyl}piperazine]	< 1000 nM

SMILES	Ki
COc1cc(-c2ccc(N3CCN(CC(=O)N4CCN(C5CCC5)CC4)CC3)cc2)cc(OC)c1OC [Compound 725, 1-cyclobutyl-4-{[4-(3′,4′,5′-trimethoxybiphenyl-4-yl)piperazin-1-yl]acetyl}piperazine]	< 1000 nM
O=C(CN1CCN(c2ccc(-c3ccc(Cl)c(Cl)c3)cc2)CC1)N1CCN(C2CCC2)CC1 [Compound 727, 1-cyclobutyl-4-{[4-(3′,4′-dichlorobiphenyl-4-yl)piperazin-1-yl]acetyl}piperazine]	< 1000 nM
O=C(CN1CCN(c2ccc(-c3ccc(F)c(F)c3)cc2)CC1)N1CCN(C2CCC2)CC1 [Compound 730, 1-cyclobutyl-4-{[4-(3′,4′-difluorobiphenyl-4-yl)piperazin-1-yl]acetyl}piperazine]	< 1000 nM
COc1ccc(-c2ccc(N3CCN(CC(=O)N4CCN(C5CCC5)CC4)CC3)cc2)cc1OC [Compound 732, 1-cyclobutyl-4-{[4-(3′,4′-dimethoxybiphenyl-4-yl)piperazin-1-yl]acetyl}piperazine]	< 1000 nM
COc1ccc(N2CCN(CC(=O)N3CCN(C4CCC4)CC3)CC2)cc1OC [Compound 733, 1-cyclobutyl-4-{[4-(3,4-dimethoxyphenyl)piperazin-1-yl]acetyl}piperazine]	< 1000 nM
Cc1ccc(-c2ccc(N3CCN(CC(=O)N4CCN(C5CCC5)CC4)CC3)cc2)cc1C [Compound 735, 1-cyclobutyl-4-{[4-(3′,4′-dimethylbiphenyl-4-yl)piperazin-1-yl]acetyl}piperazine]	< 1000 nM
Cc1ccc(N2CCN(CC(=O)N3CCN(C4CCC4)CC3)CC2)cc1C [Compound 736, 1-cyclobutyl-4-{[4-(3,4-dimethylphenyl)piperazin-1-yl]acetyl}piperazine]	< 1000 nM
O=C(CN1CCN(c2ccc(-c3cc(Cl)cc(Cl)c3)cc2)CC1)N1CCN(C2CCC2)CC1 [Compound 739, 1-cyclobutyl-4-{[4-(3′,5′-dichlorobiphenyl-4-yl)piperazin-1-yl]acetyl}piperazine]	< 1000 nM
O=C(CN1CCN(c2ccc(-c3cc(F)cc(F)c3)cc2)CC1)N1CCN(C2CCC2)CC1 [Compound 740, 1-cyclobutyl-4-{[4-(3′,5′-difluorobiphenyl-4-yl)piperazin-1-yl]acetyl}piperazine]	< 1000 nM
Cc1cc(C)cc(-c2ccc(N3CCN(CC(=O)N4CCN(C5CCC5)CC4)CC3)cc2)c1 [Compound 743, 1-cyclobutyl-4-{[4-(3′,5′-dimethylbiphenyl-4-yl)piperazin-1-yl]acetyl}piperazine]	< 1000 nM
COC[C@H]1CCCN1C(=O)c1cccc(N2CCN(CC(=O)N3CCN(C4CCC4)CC3)CC2)c1 [Compound 744, 1-cyclobutyl-4-{[4-(3-{[(2R)-2-(methoxymethyl)pyrrolidin-1-yl]car-bonyl}phenyl)piperazin-1-yl]acetyl}piperazine]	< 1000 nM
COC[C@@H]1CCCN1C(=O)c1cccc(N2CCN(CC(=O)N3CCN(C4CCC4)CC3)CC2)c1 [Compound 745, 1-cyclobutyl-4-{[4-(3-{[(2S)-2-(methoxymethyl)pyrrolidin-1-yl]car-bonyl}phenyl)piperazin-1-yl]acetyl}piperazine]	< 1000 nM
CCOc1cccc(-c2ccc(N3CCN(CC(=O)N4CCN(C5CCC5)CC4)CC3)cc2)c1 [Compound 746, 1-cyclobutyl-4-{[4-(3′-ethoxybiphenyl-4-yl)piperazin-1-yl]acetyl}piperazine]	< 1000 nM
CCc1cccc(-c2ccc(N3CCN(CC(=O)N4CCN(C5CCC5)CC4)CC3)cc2)c1 [Compound 747, 1-cyclobutyl-4-{[4-(3′-ethylbiphenyl-4-yl)piperazin-1-yl]acetyl}piperazine]	< 1000 nM
COc1ccc(-c2cccc(N3CCN(CC(=O)N4CCN(C5CCC5)CC4)CC3)c2)cc1F [Compound 749, 1-cyclobutyl-4-{[4-(3′-fluoro-4′-methoxybiphenyl-3-yl)piperazin-1-yl]acetyl}piperazine]	< 1000 nM
COc1ccc(-c2ccc(N3CCN(CC(=O)N4CCN(C5CCC5)CC4)CC3)cc2)cc1F [Compound 750, 1-cyclobutyl-4-{[4-(3′-fluoro-4′-methoxybiphenyl-4-yl)piperazin-1-yl]acetyl}piperazine]	< 1000 nM
Cc1ccc(-c2ccc(N3CCN(CC(=O)N4CCN(C5CCC5)CC4)CC3)cc2)cc1F [Compound 751, 1-cyclobutyl-4-{[4-(3′-fluoro-4′-methylbiphenyl-4-yl)piperazin-1-yl]acetyl}piperazine]	< 1000 nM
O=C(CN1CCN(c2ccc(-c3cccc(F)c3)cc2)CC1)N1CCN(C2CCC2)CC1 [Compound 753, 1-cyclobutyl-4-{[4-(3′-fluorobiphenyl-4-yl)piperazin-1-yl]acetyl}piperazine]	< 1000 nM
O=C(CN1CCN(c2cccc(F)c2)CC1)N1CCN(C2CCC2)CC1 [Compound 754, 1-cyclobutyl-4-{[4-(3-fluorophenyl)piperazin-1-yl]acetyl}piperazine]	< 1000 nM

— US7851474B2, “Dipiperazinyl ketones and related analogues” (Neurogen Corporation, priority 2005, dated 2010)
